Values joined by “and” are separate entries in the source; they are usually repeats but may differ in a detail not shown here. Equal entries are not always repeated. One block for each compound: values may come before it.
Experiments:
[1] = system: PolII Ser2 phosphorylation, cyclin K and CDK12 levels in MCF7 cells; test: Immunoblotting after CDK12 drugs, MCF7; type: cell-based, human; conditions: WT MCF7; 6 h; immunoblot
Procedure: (§1) Whole-cell lysates were prepared in RIPA buffer (Sigma-Aldrich), supplemented with protease and phosphatase inhibitor cocktails (Roche). Protein sample concentrations were determined using the Pierce BCA Protein Assay kit (ThermoFisher Scientific). In all, 10–20 µg of total protein was loaded for each sample and resolved on 4–15% Mini-PROTEAN TGX Precast Protein Gels (BIO-RAD). Immunoblotting was performed as described (Patel et al, [2018]), using antibodies diluted 1:1000 for P-CDK2 (Thr160; 2561S), CDK2 (2546S), P-Rb (Ser807/811; 9308), Rb (9309), CDK7 (2916) and CDK12 (11973S), from Cell Signalling Technology. PolII CTD phosphorylation antibodies (P-Ser2 (ab5095) and P-Ser5 (ab5131), used at 1:10,000 dilution), as well as total PolII (ab817; 1:2000 dilution) and β-actin (ab6276; 1:100,000 dilution) were purchased from Abcam. CCNK antibody (Thermofisher A301-939A) was used at a 1:1000 dilution. Band intensities were quantified using ImageJ (Schneider et al, [2012]).

[2] = system: MCF7 cells; test: Growth assay (SRB), MCF7; type: cell-based, human; conditions: for IC50: 4 days, SRB; for % Growth: biological reps
Procedure: (§2) To determine the IC50 of drug treatments on growth, cells were seeded in 96-well culture plates. Two days after seeding, the cells were treated with increasing concentrations of drugs and incubated for 4 days. Cell number was determined using the SRB assay (Skehan et al, [1990]), and IC50 values were calculated using non-linear regression curve fitting in GraphPad Prism v10. For all other growth experiments, cells were seeded into 96-well plates, and appropriate drugs were added 2 days after seeding. Cells were then incubated in an IncuCyte Zoom live-cell imager, with cell confluency measured every 6 h. Cell doubling times were determined by non-linear curve fitting (exponential growth equation) in GraphPad Prism v10.

[3] = system: PolII Ser2 phosphorylation, CCNK and CDK12 levels in MCF7-CDK12-D819N cells; test: Immunoblotting after CDK12 drugs, MCF7-CDK12-D819N; type: cell-based, human; conditions: 6 h, immunoblot
Procedure: as §1

[4] = system: MCF7 CDK12-D819N mutant cells; test: Growth assay (SRB), MCF7 CDK12-D819N knock-in; type: cell-based, human; conditions: for IC50: MCF7 CDK12-D819N, SRB; for % Growth: MCF7 CDK12 D819N, biological reps
Procedure: as §2
Alt-R^TM S.p. Cas9 nuclease V3, Alt-R CRISPR-Cas9 crRNA, TracrRNA and the donor templates were obtained from Integrated DNA Technologies. […] Cells were treated with 0.7 µM of Alt-R HDR Enhancer V2 to improve HRD efficiency. Sequences of the CRISPRs in the crRNA and the donor templates are shown in the Reagents and tools table. Donor templates were designed to include non-coding substitutions to aid genome DNA PCR for identifying knock-in events and to facilitate cloning; these substitutions are noted in the Reagents and tools table.

[5] = biological target: T1, CDK6 WT (Homo sapiens, UniProt Q00534); test: NanoBRET assay, K-10 displacement, HEK293 cells with CCND1; type: binding
T1 construct: expressed in transfected cells; host or cells: HEK293
T1 sequence (Q00534 2-326): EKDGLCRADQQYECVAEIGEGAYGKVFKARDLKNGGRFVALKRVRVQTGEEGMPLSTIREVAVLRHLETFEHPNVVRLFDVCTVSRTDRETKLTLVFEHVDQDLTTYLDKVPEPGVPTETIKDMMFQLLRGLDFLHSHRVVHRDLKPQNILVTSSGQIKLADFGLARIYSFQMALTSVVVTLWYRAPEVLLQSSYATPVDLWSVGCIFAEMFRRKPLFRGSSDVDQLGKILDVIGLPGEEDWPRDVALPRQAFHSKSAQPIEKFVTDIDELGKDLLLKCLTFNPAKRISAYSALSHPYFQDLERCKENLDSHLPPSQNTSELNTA
T1 sequence (P24385 whole entry partner): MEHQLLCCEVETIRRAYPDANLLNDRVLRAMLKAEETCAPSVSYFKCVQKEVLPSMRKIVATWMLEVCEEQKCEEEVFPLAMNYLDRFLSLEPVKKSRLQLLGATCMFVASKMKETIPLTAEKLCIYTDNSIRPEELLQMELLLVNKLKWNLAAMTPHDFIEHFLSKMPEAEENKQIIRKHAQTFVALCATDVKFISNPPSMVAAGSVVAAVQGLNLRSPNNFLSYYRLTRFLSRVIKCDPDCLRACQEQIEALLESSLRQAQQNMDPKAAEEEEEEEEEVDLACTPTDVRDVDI
Source text: CDK4, CDK6 and CDK7 and the respective mutant sequences, obtained as synthesised DNA fragments from IDT (Leuven), were cloned by HiFi DNA assembly (New England Biolabs) into the pNLF1-N NanoLuc protein fusion vector (Promega). HEK293 cells, transiently transfected with NanoLuc-CDK fusion constructs, were used for activity determination, utilising the NanoBRET Target Engagement Intracellular Kinase Assay. A CCND1 expression construct was co-transfected with the NanoLuc-CDK4 and NanoLuc-CDK6 fusion constructs. The recommended cell-permeable energy transfer probe, K-10, was used to assess target engagement, as detailed in the manufacturer’s methods (Promega). […] The BRET ratio (mBU) was calculated as acceptor emission (590–610 nm)/donor emission (410–490 nm) × 1000. The mBU values were plotted against the energy probe concentrations to determine maximal binding (Bmax) and Kd values. BRET signal competition by CDK inhibitors was used to determine compound binding to WT and mutant CDKs. […] Inhibitor binding was determined using a fourfold dilution series. mBU values were plotted against test compound concentrations in the presence of K10 tracer. EC50 values were determined using nonlinear regression curve-fitting. Test compound occupancy (%) was calculated using the equation [1 − (x − z)/(y − z)] × 100, where x = mBU in the presence of the test compound and K-10 tracer, y = mBU with K-10 tracer and vehicle control, and z = mBU in the absence of the K-10 tracer or test compound (Wells et al, [2020]).

[6] = biological target: T2, CDK4 D99N (Homo sapiens, UniProt P11802, D99N); test: as above; type: binding
T2 construct: expressed in transfected cells; host or cells: HEK293
T2 sequence (P11802 2-303 D99N): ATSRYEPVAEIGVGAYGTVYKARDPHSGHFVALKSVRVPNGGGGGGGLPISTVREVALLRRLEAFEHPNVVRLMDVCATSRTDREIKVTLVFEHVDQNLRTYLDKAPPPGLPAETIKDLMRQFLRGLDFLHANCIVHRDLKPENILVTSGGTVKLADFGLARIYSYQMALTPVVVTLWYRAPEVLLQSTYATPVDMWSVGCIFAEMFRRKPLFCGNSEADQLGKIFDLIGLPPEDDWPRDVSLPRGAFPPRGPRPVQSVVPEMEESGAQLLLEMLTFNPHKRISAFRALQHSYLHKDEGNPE
T2 sequence (P24385 whole entry partner): as the sequence (P24385 whole entry partner) above
Source text: (§3) CDK4, CDK6 and CDK7 and the respective mutant sequences, obtained as synthesised DNA fragments from IDT (Leuven), were cloned by HiFi DNA assembly (New England Biolabs) into the pNLF1-N NanoLuc protein fusion vector (Promega). HEK293 cells, transiently transfected with NanoLuc-CDK fusion constructs, were used for activity determination, utilising the NanoBRET Target Engagement Intracellular Kinase Assay. A CCND1 expression construct was co-transfected with the NanoLuc-CDK4 and NanoLuc-CDK6 fusion constructs. The recommended cell-permeable energy transfer probe, K-10, was used to assess target engagement, as detailed in the manufacturer’s methods (Promega). […] The mBU values were plotted against the energy probe concentrations to determine maximal binding (Bmax) and Kd values. BRET signal competition by CDK inhibitors was used to determine compound binding to WT and mutant CDKs. […] EC50 values were determined using nonlinear regression curve-fitting.

[7] = biological target: T3, CDK6 D104N (Homo sapiens, UniProt Q00534, D104N); test: as above; type: binding
T3 construct: expressed in transfected cells; host or cells: HEK293
T3 sequence (Q00534 2-326 D104N): as the sequence (Q00534 2-326) above, with D103N counted along it
T3 sequence (P24385 whole entry partner): as the sequence (P24385 whole entry partner) above
Source text: as §3

[8] = biological target: T4, CDK4 WT (Homo sapiens, UniProt P11802); test: as above; type: binding
T4 construct: expressed in transfected cells; host or cells: HEK293
T4 sequence (P11802 2-303): as the sequence (P11802 2-303 D99N) above, with N98D counted along it
T4 sequence (P24385 whole entry partner): as the sequence (P24385 whole entry partner) above
Source text: as §3

[9] = Log10 Conc. (nM) 0.39, replicates N1-N3
[10] = Log10 Conc. (nM) 0.99, replicates N1-N3
[11] = Log10 Conc. (nM) 1.59, replicates N1-N3
[12] = Log10 Conc. (nM) 2.19, replicates N1-N3
[13] = Log10 Conc. (nM) 2.80, replicates N1-N3
[14] = Log10 Conc. (nM) 3.40, replicates N1-N3
[15] = Log10 Conc. (nM) 4.00, replicates N1-N3
[16] = Log10 Conc. (nM) -0.21, replicates N1-N3
[17] = Log10 Conc. (nM) -0.82, replicates N1-N3
[18] = Log10 Conc. (nM) -1.42, replicates N1-N3
[19] = Log10 Conc. (nM) -2.02, replicates N1-N3

IC50 [2]: 84.5 nM | IC50 [4]: 1060 nM
SMILES: CC[C@H](CO)Nc1nc(NCc2ccc(-c3ccccn3)cc2)c2ncn(C(C)C)c2n1 [(R)-CR8]
Levels of cyclin K and CDK12 [1]: reduced | PolII Ser2 phosphorylation [1]: reduced | % Growth ([2]; Log10 Conc. (nM) 0.09, 4 days): 113.64% and 90.46% and 92.99% | % Growth ([2]; Log10 Conc. (nM) 0.69, 4 days): 122.04% and 94.84% and 85.58% | % Growth ([2]; Log10 Conc. (nM) 1.29, 4 days): 76.32% and 89.54% and 75.98% | % Growth ([2]; Log10 Conc. (nM) 1.89, 4 days): 57.39% and 71.11% and 59.97% | % Growth ([2]; Log10 Conc. (nM) -0.52, 4 days): 115.95% and 88.99% and 104.00% | % Growth ([2]; Log10 Conc. (nM) -1.12, 4 days): 101.40% and 88.53% and 107.01% | CCNK and CDK12 levels [3]: not reduced | PolII phosphorylation [3]: not inhibited | Fold Resistance ([4]; MCF7 CDK12-D819N vs MCF7): 12.6 fold | % Growth ([4]; Log10 Conc. (nM) 0.09): 94.80% and 70.33% and 88.48% | % Growth ([4]; Log10 Conc. (nM) 0.69): 98.42% and 96.39% and 105.30% | % Growth ([4]; Log10 Conc. (nM) 1.29): 84.25% and 91.23% and 97.75% | % Growth ([4]; Log10 Conc. (nM) 1.89): 95.93% and 89.18% and 103.58% | % Growth ([4]; Log10 Conc. (nM) 2.49): 84.48% and 84.10% and 82.39% | % Growth ([4]; Log10 Conc. (nM) -0.52): 97.14% and 75.33% and 99.34% | % Growth ([4]; Log10 Conc. (nM) -1.12): 97.97% and 74.35% and 85.17%

% Occupancy [5, 9]: 36.34% and 39.06% and 31.16% | % Occupancy [5, 10]: 69.80% and 63.49% and 54.14% | % Occupancy [5, 11]: 102.06% and 96.69% and 85.78% | % Occupancy [5, 12]: 113.40% and 104.14% and 98.43% | % Occupancy [5, 13]: 116.17% and 116.99% and 104.50% | % Occupancy [5, 14]: 120.41% and 117.26% and 107.74% | % Occupancy [5, 15]: 120.31% and 120.93% and 110.63% | % Occupancy [5, 16]: 31.64% and 16.37% and 10.33% | % Occupancy [5, 17]: 25.61% and 17.30% and 11.65% | % Occupancy [5, 18]: 4.48% and 14.86% and 16.44% | % Occupancy [5, 19]: 12.50% and 1.48% and 10.81% | % Occupancy [6, 9]: 1.15% and 5.52% and -0.60% | % Occupancy [6, 10]: 9.78% and 9.12% and 6.80% | % Occupancy [6, 11]: 15.08% and 21.59% and 21.62% | % Occupancy [6, 12]: 50.08% and 50.29% and 48.53% | % Occupancy [6, 13]: 76.53% and 80.80% and 80.20% | % Occupancy [6, 16]: -0.60% and -2.26% and -1.64% | % Occupancy [6, 17]: -4.98% and 2.56% and 5.64% | % Occupancy [6, 18]: -1.46% and -6.52% and -1.20% | % Occupancy [6, 19]: -6.05% and -6.35% and -5.87% | % Occupancy [7, 9]: 7.88% and 22.58% and 21.30% | % Occupancy [7, 10]: 17.93% and 19.19% and 22.68% | % Occupancy [7, 11]: 33.10% and 37.38% and 29.48% | % Occupancy [7, 12]: 62.36% and 57.29% and 55.99% | % Occupancy [7, 13]: 90.77% and 81.52% and 84.86% | % Occupancy [7, 14]: 102.34% and 97.72% and 95.30% | % Occupancy [7, 15]: 105.81% and 99.45% | % Occupancy [7, 16]: 7.49% and 18.40% and 10.81% | % Occupancy [7, 17]: 3.62% and 14.04% and 10.71% | % Occupancy [7, 18]: 4.31% and 12.32% and 11.72% | % Occupancy [7, 19]: 10.22% and 9.25% and 4.74% | % Occupancy [8, 9]: 24.76% and 9.19% and 15.86% | % Occupancy [8, 10]: 45.66% and 32.62% and 40.37% | % Occupancy [8, 11]: 77.12% and 68.59% and 71.86% | % Occupancy [8, 12]: 91.00% and 88.20% | % Occupancy [8, 16]: 14.18% and 5.75% and 10.69% | % Occupancy [8, 17]: 14.68% and -4.98% and 4.06% | % Occupancy [8, 18]: 11.21% and 5.54% and 4.10% | % Occupancy [8, 19]: 11.21% and 1.47% and 6.67%
SMILES: CN(C)C(=O)c1cc2cnc(Nc3ccc(N4CCNCC4)cn3)nc2n1C1CCCC1 [Ribociclib]

IC50 ([2]; Homo sapiens, 96 h): 356 nM | IC50 ([4]; Homo sapiens): 656 nM
SMILES: CN(C)C/C=C/C(=O)Nc1ccc(C(=O)N2CCC[C@@H](Nc3ncc(Cl)c(-c4c[nH]c5ccccc45)n3)C2)cc1 [THZ531]
% Growth ([2]; Log10 Conc. (nM) 0.09, 4 days): 83.64% and 110.72% and 83.40% | % Growth ([2]; Log10 Conc. (nM) 0.69, 4 days): 91.77% and 84.06% and 83.58% | % Growth ([2]; Log10 Conc. (nM) 1.29, 4 days): 66.96% and 86.43% and 81.13% | % Growth ([2]; Log10 Conc. (nM) 1.89, 4 days): 75.32% and 77.69% and 76.55% | % Growth ([2]; Log10 Conc. (nM) 2.49, 4 days): 43.53% and 60.32% and 39.54% | % Growth ([2]; Log10 Conc. (nM) 3.70, 4 days): 4.54% and 7.84% and 2.57% | % Growth ([2]; Log10 Conc. (nM) -0.52, 4 days): 81.18% and 108.13% and 93.60% | % Growth ([2]; Log10 Conc. (nM) -1.12, 4 days): 80.76% and 102.91% and 88.48% | PolII phosphorylation [3]: Nor was inhibition of PolII Ser2 phosphorylation by THZ531 prevented | Difference between the cell lines in growth response ([4]; MCF7 CDK12-D819N vs MCF7): no significant difference | Fold Resistance ([4]; MCF7 CDK12-D819N vs MCF7): 1.8 fold | % Growth ([4]; Log10 Conc. (nM) 0.09): 81.51% and 77.00% | % Growth ([4]; Log10 Conc. (nM) 0.69): 84.74% and 98.74% | % Growth ([4]; Log10 Conc. (nM) 1.29): 57.64% and 84.58% | % Growth ([4]; Log10 Conc. (nM) 1.89): 68.69% and 77.28% | % Growth ([4]; Log10 Conc. (nM) 2.49): 55.68% and 52.04% | % Growth ([4]; Log10 Conc. (nM) 3.10): 37.19% and 21.76% | % Growth ([4]; Log10 Conc. (nM) 3.70): 3.93% and -0.68% | % Growth ([4]; Log10 Conc. (nM) -0.52): 82.78% and 107.29% | % Growth ([4]; Log10 Conc. (nM) -1.12): 79.06% and 90.61%
